Laboratory results reported in patent US11180462B2, “Microbiocidal oxadiazole derivatives” (SYNGENTA PARTICIPATIONS AG, priority 2015, dated 2021).

Assays:
[1] = tested on: Puccinia recondita f. Sp. Tritici; experiment: Fungicidal activity against Puccinia recondita f. sp. tritici / wheat / leaf disc curative (brown rust); format: in vivo; settings: foliar, 24 h, 200 ppm in the applied formulation, wheat leaf segments, curative (applied 1 day after inoculation), compared to untreated control leaf disks, read-out: disease control
Protocol: Leaf disks or leaf segments of various plant species are cut from plants grown in a greenhouse. The cut leaf disks or segments are placed in multiwell plates (24-well format) onto water agar. The leaf disks are sprayed with a test solution before (preventative) or after (curative) inoculation. Compounds to be tested are prepared as DMSO solutions (max. 10 mg/ml) which are diluted to the appropriate concentration with 0.025% Tween20 just before spraying. The inoculated leaf disks or segments are incubated under defined conditions (temperature, relative humidity, light, etc.) according to the respective test system. A single evaluation of disease level is carried out 3 to 14 days after inoculation, depending on the pathosystem. Percent disease control relative to the untreated check leaf disks or segments is then calculated.
Fungicidal Activity Against Puccinia recondita f. Sp. Tritici/Wheat/Leaf Disc Curative (Brown Rust)
Wheat leaf segments cv. Kanzler are placed on agar in multiwell plates (24-well format). The leaf segments are then inoculated with a spore suspension of the fungus. Plates were stored in darkness at 19° C. and 75% relative humidity. The formulated test compound diluted in water was applied 1 day after inoculation. The leaf segments were incubated at 19° C. and 75% relative humidity under a light regime of 12 hours light/12 hours darkness in a climate cabinet and the activity of a compound was assessed as percent disease control compared to untreated when an appropriate level of disease damage appears in untreated check leaf segments (6 to 8 days after application).
The following compounds at 200 ppm in the applied formulation give at least 80% disease control in this test when compared to untreated control leaf disks under the same conditions, which show extensive disease development.

[2] = tested on: Glomerella lagenarium (Colletotrichum lagenarium); experiment: Fungicidal activity against Glomerella lagenarium (Colletotrichum lagenarium) liquid culture / cucumber / preventative (anthracnose); format: cell-based; settings: Colletotrichum orbiculare; 20 ppm in the applied formulation; liquid culture (PDB), growth inhibition measured photometrically after 3 to 4 days; compared to untreated control; read-out: disease control
How it was run: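 Photometric read-out of fungal growth after 2–7 days, expressed as percent antifungal activity versus untreated check. Cryo-stored conidia in PDB; compound at 20 ppm; dark, 24 °C, 96% RH.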

[3] = tested on: Puccinia recondita f. Sp. Tritici; experiment: Fungicidal activity against Puccinia recondita f. sp. tritici / wheat / leaf disc preventative (brown rust); format: in vivo; settings: foliar, 200 ppm in the applied formulation, wheat leaf segments, preventative, compared to untreated control leaf disks, read-out: disease control
How it was run: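 Compound application precedes infection: segments of wheat cv. Kanzler, sprayed at 200 ppm, are inoculated with a spore suspension after 1 day. Incubation is at 19° C. with 75% relative humidity and 12 h light/12 h darkness, and control versus untreated leaves is rated 7 to 9 days post-application.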

Row | Compound | pest or weed control at 200 ppm [1] | inhibition of growth at 20 ppm [2] | pest or weed control at 200 ppm [3]
1 | CCCC(C)(C)C(=O)N(Cc1ccc(-c2noc(C(F)(F)F)n2)cc1)OC [Compound 1.10, N-methoxy-2,2-dimethyl-N-[[4-[5-(trifluoromethyl)-1,2,4-oxadiazol-3-yl]phenyl]methyl]-pentanamide] | ≥ 80% | ≥ 80% | ≥ 80%
2 | CON(Cc1ccc(-c2noc(C(F)(F)F)n2)cc1)C(=O)c1cccc2ccccc12 [Compound 1.37] | ≥ 80% | ≥ 80% | –
3 | CON(Cc1ccc(-c2noc(C(F)(F)F)n2)cc1)C(=O)Cc1ccc(C#N)cc1 [Compound 1.52, 2-(4-cyanophenyl)-N-methoxy-N-[[4-[5-(trifluoromethyl)-1,2,4-oxadiazol-3-yl]phenyl]methyl]-acetamide] | ≥ 80% | – | ≥ 80%
4 | O=C(CCCCC(F)(F)F)N(Cc1ccc(-c2noc(C(F)(F)F)n2)cc1)C1CC1 [Compound 1.131, N-cyclopropyl-6,6,6-trifluoro-N-[[4-[5-(trifluoromethyl)-1,2,4-oxadiazol-3-yl]phenyl]methyl]-hexanamide] | ≥ 80% | ≥ 80% | –
5 | C#CCN(Cc1ccc(-c2noc(C(F)(F)F)n2)cc1)C(=O)C(C)(C)CCC [Compound 1.153, 2,2-dimethyl-N-prop-2-ynyl-N-[[4-[5-(trifluoromethyl)-1,2,4-oxadiazol-3-yl]phenyl]methyl]-pentanamide] | ≥ 80% | ≥ 80% | –
6 | C#CCN(Cc1ccc(-c2noc(C(F)(F)F)n2)cc1)C(=O)C1CCSCC1 [Compound 1.188, N-prop-2-ynyl-N-[[4-[5-(trifluoromethyl)-1,2,4-oxadiazol-3-yl]phenyl]methyl]-tetrahydrothiopyran-4-carboxamide] | ≥ 80% | – | ≥ 80%
7 | CCCON(Cc1ccc(-c2noc(C(F)(F)F)n2)cc1)C(=O)C1OCCO1 [Compound 1.317, N-propoxy-N-[[4-[5-(trifluoromethyl)-1,2,4-oxadiazol-3-yl]phenyl]methyl]-1,3-dioxolane-2-carboxamide] | ≥ 80% | ≥ 80% | –
8 | COCCN(Cc1ccc(-c2noc(C(F)(F)F)n2)cc1)C(=O)C1(F)CC1 [Compound 1.349, 1-fluoro-N-(2-methoxyethyl)-N-[[4-[5-(trifluoromethyl)-1,2,4-oxadiazol-3-yl]phenyl]methyl]-cyctopropane-carboxamide] | ≥ 80% | ≥ 80% | –
9 | CCC(COC)C(=O)N(CCOC)Cc1ccc(-c2noc(C(F)(F)F)n2)cc1 (stereo not drawn) [Compound 1.353, N-(2-methoxyethyl)-2-(methoxymethyl)-N-[[4-[5-(trifluoromethyl)-1,2,4-oxadiazol-3-yl]phenyl]methyl]-butanamide] | ≥ 80% | – | ≥ 80%
10 | COCCN(Cc1ccc(-c2noc(C(F)(F)F)n2)cc1)C(=O)C1CCCN1C(C)=O (stereo not drawn) [Compound 1.357, 1-acetyl-N-(2-methoxyethyl)-N-[[4-[5-(trifluoromethyl)-1,2,4-oxadiazol-3-yl]phenyl]methyl]-pyrrolidine-2-carboxamide] | ≥ 80% | – | ≥ 80%
11 | CCC(C)N(Cc1ccc(-c2noc(C(F)(F)F)n2)cc1)C(=O)C1=CCCC1 (stereo not drawn) [Compound 1.377, N-sec-butyl-N-[[4-[5-(trifluoromethyl)-1,2,4-oxadiazol-3-yl]phenyl]methyl]-cyclopentene-1-carboxamide] | ≥ 80% | ≥ 80% | –
12 | O=C(C1CC1F)N(Cc1ccc(-c2noc(C(F)(F)F)n2)cc1)CC1CCCO1 (stereo not drawn) [Compound 1.445, 2-fluoro-N-(tetrahydrofuran-2-ylmethyl)-N-[[4-[5-(trifluoromethyl)-1,2,4-oxadiazol-3-yl]phenyl]methyl]-cyclopropane-carboxamide] | ≥ 80% | ≥ 80% | –
13 | O=C(C1CCCC1)N(Cc1ccc(-c2noc(C(F)(F)F)n2)cc1)Cc1ccco1 [Compound 1.455, N-(2-furylmethyl)-N-[[4-[5-(trifluoromethyl)-1,2,4-oxadiazol-3-yl]phenyl]methyl]-cyclopentane-carboxamide] | ≥ 80% | ≥ 80% | –
14 | CON(Cc1ccc(-c2noc(C(F)(F)F)n2)cc1)C(=O)CN [Compound 1.788, [2-[methoxy-[[4-[5-(trifluoromethyl)-1,2,4-oxadiazol-3-yl]phenyl]methyl]-amino]-2-oxo-ethyl]ammonium; chloride] | ≥ 80% | – | ≥ 80%
15 | CON(Cc1ccc(-c2noc(C(F)(F)F)n2)nc1)C(=O)C1CCCO1 (stereo not drawn) [Compound 1.789, N-methoxy-N-[[6-[5-(trifluoromethyl)-1,2,4-oxadiazol-3-yl]-3-pyridyl]methyl]-tetrahydrofuran-2-carboxamide] | ≥ 80% | – | ≥ 80%
16 | C=CCOC(=O)N(Cc1ccc(-c2noc(C(F)(F)F)n2)cc1)OC [Compound 2.11, allyl N-methoxy-N-[[4-[5-(trifluoromethyl)-1,2,4-oxadiazol-3-yl]phenyl]methyl]-carbamate] | ≥ 80% | ≥ 80% | –
17 | CON(Cc1ccc(-c2noc(C(F)(F)F)n2)cc1)C(=O)OCCF [Compound 2.15, 2-fluoroethyl N-methoxy-N-[[4-[5-(trifluoromethyl)-1,2,4-oxadiazol-3-yl]phenyl]methyl]-carbamate] | ≥ 80% | ≥ 80% | –
18 | CON(Cc1ccc(-c2noc(C(F)(F)F)n2)cc1)C(=O)OCCCl [Compound 2.17, 2-chloroethyl N-methoxy-N-[[4-[5-(trifluoromethyl)-1,2,4-oxadiazol-3-yl]phenyl]methyl]-carbamate] | ≥ 80% | ≥ 80% | –
19 | C#CCOC(=O)N(Cc1ccc(-c2noc(C(F)(F)F)n2)cc1)OC [Compound 2.20, prop-2-ynyl N-methoxy-N-[[4-[5-(trifluoromethyl)-1,2,4-oxadiazol-3-yl]phenyl]methyl]-carbamate] | ≥ 80% | ≥ 80% | –
20 | CNC(=O)CN(C)C(=O)N(C)Cc1ccc(-c2noc(C(F)(F)F)n2)cc1 [Compound 3.68, N-methyl-2-[methyl-[methyl-[[4-[5-(trifluoromethyl)-1,2,4-oxadiazol-3-yl]phenyl]methyl]-carbamoyl]-amino]acetamide] | ≥ 80% | – | ≥ 80%
21 | CCN(Cc1ccc(-c2noc(C(F)(F)F)n2)cc1)C(=O)N(C)CC(=O)NC [Compound 3.86, 2-[[ethyl-[[4-[5-(trifluoromethyl)-1,2,4-oxadiazol-3-yl]phenyl]methyl]-carbamoyl]-methyl-amino]-N-methyl-acetamide] | ≥ 80% | – | ≥ 80%
22 | CCN(Cc1ccc(-c2noc(C(F)(F)F)n2)cc1)C(=O)N(CC)CC1CC1 [Compound 3.100, 1-(cyclopropylmethyl)-1,3-diethyl-3-[[4-[5-(trifluoromethyl)-1,2,4-oxadiazol-3-yl]phenyl]methyl]urea] | ≥ 80% | ≥ 80% | –
